Measurements taken from patent publication US4272437A, “Antibacterial agents, and 4-thio azetidinone intermediates” (priority 1979, dated 1981).
In brackets after ≈: the same amount, converted by molar mass. Like-named read-outs stand apart in the source and are kept apart here.

What was measured:
Str. pyogenes A-9604 = assay: MIC, tube dilution, Streptococcus pyogenes A9604; format: cell-based; details: Streptococcus pyogenes, A9604, Str. pyogenes A9604; overnight 37° C., Nutrient Broth; read-out: Minimum Inhibitory Concentration (M.I.C.)
Excerpt: (§1) Representative compounds of the present invention were subjected to in vitro antibiotic screening against a variety of microorganisms.

K. pneumoniae A-15130 = assay: MIC, tube dilution, Klebsiella pneumoniae A15130; format: cell-based; details: Klebsiella pneumoniae, A15130, K. pneumoniae A15130; overnight 37° C.; read-out: Minimum Inhibitory Concentration (M.I.C.)
Excerpt: as §1

Pr. morganii A-15153 = assay: MIC, tube dilution, Proteus morganii A15153; format: cell-based; details: Morganella morganii, A15153, Proteus morganii A15153; overnight 37° C.; read-out: Minimum Inhibitory Concentration (M.I.C.)
Excerpt: as §1

Ent. cloacae A-9656 = assay: MIC, tube dilution, Enterobacter cloacae A9656; format: cell-based; details: Enterobacter cloacae, A9656, Enterobacter cloacae A9656; overnight 37° C.; read-out: Minimum Inhibitory Concentration (M.I.C.)
Excerpt: as §1

Ps. aeruginosa A-9843A = assay: MIC, tube dilution, Pseudomonas aeruginosa A9843A; format: cell-based; details: Pseudomonas aeruginosa, A9843A, read-out: Minimum Inhibitory Concentration (M.I.C.), Pseudomonas aeruginosa A9843A; overnight 37° C.
Excerpt: as §1

[1] = tested on: Staph. aureus A-9537 and 50% serum; assay: MIC, tube dilution, Staph. aureus A9537 + 50% serum; format: cell-based, Staphylococcus aureus; details: Staphylococcus aureus, overnight 37° C., read-out: Minimum Inhibitory Concentration (M.I.C.)
Excerpt: as §1

Proteus rettgeri A21203 = assay: MIC, tube dilution, Proteus rettgeri A21203; format: cell-based; details: Providencia rettgeri, A21203, Proteus rettgeri A21203; overnight 37° C.; read-out: Minimum Inhibitory Concentration (M.I.C.)
Excerpt: as §1

S. aureus A9537 = assay: In vivo protection of mice, lethal infection with S. aureus A9537; details: Staphylococcus aureus, A9537, im, IM, 2 treatments, read-out: PD50
Description: Representative compounds of the present invention were also tested in vivo in mice and their PD50 (dose of compound in mg/kg required to protect 50% of the treated mice against an otherwise lethal infection of a micro-organism) values determined with respect to the test organisms shown below.

Proteus vulgaris A21559 = assay: MIC, tube dilution, Proteus vulgaris A21559; format: cell-based; details: Proteus vulgaris, A21559, Proteus vulgaris A21559; overnight 37° C.; read-out: Minimum Inhibitory Concentration (M.I.C.)
Excerpt: as §1

E. coli A-20341-1 = assay: MIC, tube dilution, Escherichia coli A20341-1; format: cell-based
Excerpt: as §1

Staph. aureus A-9537 = assay: MIC, tube dilution, Staphylococcus aureus A9537; format: cell-based; details: Staphylococcus aureus, A9537, Staph. aureus A9537; overnight 37° C., Nutrient Broth; read-out: Minimum Inhibitory Concentration (M.I.C.)
Excerpt: as §1

Str. faecalis A-20688 = assay: MIC, tube dilution, Streptococcus faecalis A20688; format: cell-based; details: Enterococcus faecalis, A20688, Str. faecalis A20688; overnight 37° C.; read-out: Minimum Inhibitory Concentration (M.I.C.)
Excerpt: as §1

E. coli A-15119 = assay: MIC, tube dilution, Escherichia coli A15119; format: cell-based; details: Escherichia coli, A15119, E. coli A15119; overnight 37° C.; read-out: Minimum Inhibitory Concentration (M.I.C.)
Excerpt: as §1

[2] = tested on: Klebsiella species A20468; assay: MIC, tube dilution, Klebsiella species A20468; format: cell-based; details: Klebsiella species (K. pneumoniae) A20468; overnight 37° C.; read-out: Minimum Inhibitory Concentration (M.I.C.)
Excerpt: as §1

[3] = tested on: Staph. aureus (Pen-Res) A-9606; assay: MIC, tube dilution, Staphylococcus aureus A9606 (Pen-Res); format: cell-based; details: Staphylococcus aureus, Staph. aureus A9606 (Pen-Res); overnight 37° C.; read-out: Minimum Inhibitory Concentration (M.I.C.)
Excerpt: as §1

Ser. marcescens A-20019 = assay: MIC, tube dilution, Serratia marcescens A20019; format: cell-based; details: Serratia marcescens, A20019, Serratia marcescens A20019; overnight 37° C.; read-out: Minimum Inhibitory Concentration (M.I.C.)
Excerpt: as §1

Str. pneumoniae A-9585 = assay: MIC, tube dilution, Streptococcus pneumoniae A9585; format: cell-based; details: Streptococcus pneumoniae, A9585, Str. pneumoniae A9585; overnight 37° C., Nutrient Broth; read-out: Minimum Inhibitory Concentration (M.I.C.)
Excerpt: as §1

[4] = tested on: Staph. aureus (Meth-Res) A-15097; assay: MIC, tube dilution, Staphylococcus aureus A15097 (Meth-Res); format: cell-based; details: Staphylococcus aureus, Staph. aureus A15097 (Meth-Res); overnight 37° C.; read-out: Minimum Inhibitory Concentration (M.I.C.)
Excerpt: as §1

Pr. mirabilis A-9900 = assay: MIC, tube dilution, Proteus mirabilis A9900; format: cell-based; details: Proteus mirabilis, A9900, Proteus mirabilis A9900; overnight 37° C.; read-out: Minimum Inhibitory Concentration (M.I.C.)
Excerpt: as §1

Ps. aeruginosa A-21213 = assay: MIC, tube dilution, Pseudomonas aeruginosa A21213; format: cell-based; details: overnight 37° C.; for MIC: read-out: Minimum Inhibitory Concentration (M.I.C.)
Excerpt: as §1

Ent. cloacae A-9659 = assay: MIC, tube dilution, Enterobacter cloacae A9659; format: cell-based; details: overnight 37° C.; for MIC: Enterobacter cloacae, A9659, Enterobacter cloacae A9659, read-out: Minimum Inhibitory Concentration (M.I.C.)
Excerpt: as §1

[5] = Mouse blood levels after intramuscular administration; format: in vivo; details: average of 6 mice, read-out: Mouse blood level
Description: Mouse blood levels after intramuscular administration of representative compounds of the present invention were determined and are reported in the table below.

[6] = Escherichia coli, A203411, E. coli A20341-1; overnight 37° C.; read-out: Minimum Inhibitory Concentration (M.I.C.)
[7] = Pseudomonas aeruginosa, A21213, Pseudomonas aeruginosa A21213

| SMILES | MIC (Str. pyogenes A-9604) [mg/L] | MIC (K. pneumoniae A-15130) [mg/L] | MIC (Pr. morganii A-15153) [mg/L] | MIC (Ent. cloacae A-9656) [mg/L] | MIC (Ps. aeruginosa A-9843A) [mg/L] | MIC [1] [mg/L] | MIC (Proteus rettgeri A21203) [mg/L] | MIC (Proteus vulgaris A21559) [mg/L] | MIC (E. coli A-20341-1; [6]) [mg/L] | MIC (Staph. aureus A-9537) [mg/L] | MIC (Str. faecalis A-20688) [mg/L] | MIC (E. coli A-15119) [mg/L] | MIC [2] [mg/L] | MIC [3] [mg/L] | MIC (Ser. marcescens A-20019) [mg/L] | MIC (Str. pneumoniae A-9585) [mg/L] | MIC [4] [mg/L] | MIC (Pr. mirabilis A-9900) [mg/L] | MIC (Ps. aeruginosa A-21213; [7]) [mg/L] | MIC (Ent. cloacae A-9659) [mg/L] | further results |
| --- | --- | --- | --- | --- | --- | --- | --- | --- | --- | --- | --- | --- | --- | --- | --- | --- | --- | --- | --- | --- | --- |
| N#CCCC(N)C1=C(C(=O)O)N2C(=O)C[C@H]2S1 (some centres unmarked) [Example 83, 2-(1'-Amino-3'-cyanopropyl)-penem-3-carboxylic Acid] | 0.13 (≈ 0.513 µM) | 8 (≈ 31.6 µM) | 4 (≈ 15.8 µM) | 4 (≈ 15.8 µM) | 63 (≈ 249 µM) | 8 | 4 (≈ 15.8 µM) | 8 (≈ 31.6 µM) | 16 (≈ 63.2 µM) | 0.5 (≈ 1.97 µM) | 125 (≈ 494 µM) | 2 (≈ 7.9 µM) | > 125 | 32 (≈ 126 µM) | 4 (≈ 15.8 µM) | 0.06 (≈ 0.237 µM) | > 125 | 2 (≈ 7.9 µM) | 63 (≈ 249 µM) | 16 (≈ 63.2 µM) | ED50 (S. aureus A9537; 1.1 × 10^6 organisms): 3.3 mg/kg |
| CCCC(N)C1=C(C(=O)O)N2C(=O)CC2S1 [Example 82, (1'R,5R and 1'S,5S) and (1'R,5S and 1'S,5R) 2-(1'-Aminobutyl)-penem-3-carboxylic Acid] | 0.016 (≈ 0.066 µM) | 32 (≈ 132 µM) | 16 (≈ 66 µM) | 32 (≈ 132 µM) | > 125 | 4 | 8 (≈ 33 µM) | 8 (≈ 33 µM) | 32 (≈ 132 µM) | 0.25 (≈ 1.03 µM) | 63 (≈ 260 µM) | 8 (≈ 33 µM) | > 125 | 16 (≈ 66 µM) | 16 (≈ 66 µM) | 0.016 (≈ 0.066 µM) | 4 (≈ 16.5 µM) | 4 (≈ 16.5 µM) | – | 63 (≈ 260 µM) | ED50 (S. aureus A9537; 1 × 10^6 organisms): 1.25 mg/kg; MIC (Ps. aeruginosa A-21213; Pseudomonas aeruginosa A21213): > 125 mg/L |
| CC1=C(C(=O)O)N2C(=O)[C@H]([C@@H]3COC(C)(C)O3)[C@H]2S1 (relative stereo) [Example 103, (4'R,5R,6S and 4'S,5S,6R) 6-(2',2'-Dimethyl-1',3'-dioxolan-4'-yl)-2-methylpenem-3-carboxylic Acid (Isomer C)] | 63 (≈ 221 µM) | > 63 | > 63 | > 63 | 63 (≈ 221 µM) | > 32 | > 63 | > 63 | > 63 | > 63 | > 63 | > 63 | > 63 | > 63 | > 63 | 63 (≈ 221 µM) | > 63 | 63 (≈ 221 µM) | 63 (≈ 221 µM) | > 63 | ED50 (S. aureus A9537; 8 × 10^5 organisms): > 5 mg/kg |
| C[C@@H](O)[C@H]1C(=O)N2C(C(=O)O)=C([C@H]3C[C@H](N)C3)S[C@H]12 (relative stereo) [Example 65, (1"R,5R,6S and 1'S,5S,6R)-2-(trans-3'-Amino-1'-cyclobutyl)-6-(1"-hydroxy-1"-ethyl)penem-3-carboxylic Acid (isomer B)] | 0.004 (≈ 0.0141 µM) | < 0.25 | 1 (≈ 3.52 µM) | 0.5 (≈ 1.76 µM) | 16 (≈ 56.3 µM) | 0.06 | < 0.25 | < 0.25 | < 0.25 | 0.008 (≈ 0.0281 µM) | 0.5 (≈ 1.76 µM) | 0.13 (≈ 0.457 µM) | 0.5 (≈ 1.76 µM) | 0.06 (≈ 0.211 µM) | 0.5 (≈ 1.76 µM) | 0.004 (≈ 0.0141 µM) | – | < 0.25 | 125 (≈ 440 µM) | 4 (≈ 14.1 µM) | concentration at 10 min ([5]; 10 minutes after IM 40 mg/kg): 44.7 µg/mL; concentration at 20 min ([5]; 20 minutes after IM 40 mg/kg): 34.4 µg/mL; concentration at 0.5 h ([5]; 30 minutes after IM 40 mg/kg): 23.7 µg/mL; concentration at 0.75 h ([5]; 45 minutes after IM 40 mg/kg): 17.6 µg/mL; concentration at 1 h ([5]; 60 minutes after IM 40 mg/kg): 9.8 µg/mL; concentration at 1.5 h ([5]; 90 minutes after IM 40 mg/kg): 3.6 µg/mL; concentration at 2 h ([5]; 120 minutes after IM 40 mg/kg): 1 µg/mL; ED50 (S. aureus A9537; 7.8 × 10^5 organisms): 0.12 mg/kg; Minimum Inhibitory Concentration (M.I.C.) (Ps. aeruginosa A-21213; Pseudomonas aeruginosa A21213): 63 µg/mL; Minimum Inhibitory Concentration (M.I.C.) (Ent. cloacae A-9659; Enterobacter cloacae A9659): 2 µg/mL |
| NCc1ccc(C2=C(C(=O)O)N3C(=O)CC3S2)cc1 (centres unmarked) [Example 74, 2-(p-Aminomethylphenyl)penem-3-carboxylic Acid] | 0.001 (≈ 0.00362 µM) | 32 (≈ 116 µM) | 16 (≈ 57.9 µM) | 32 (≈ 116 µM) | > 125 | 2 | 16 (≈ 57.9 µM) | 16 (≈ 57.9 µM) | – | 0.004 (≈ 0.0145 µM) | 1 (≈ 3.62 µM) | 8 (≈ 29 µM) | > 125 | 32 (≈ 116 µM) | 16 (≈ 57.9 µM) | 0.001 (≈ 0.00362 µM) | 32 (≈ 116 µM) | 4 (≈ 14.5 µM) | – | 32 (≈ 116 µM) | ED50 (S. aureus A9537; 7.3 × 10^5 organisms): 0.82 mg/kg; MIC (E. coli A-20341-1; Escherichia coli, A203411; E. coli A20341-1; overnight 37° C.; read-out: Minimum Inhibitory Concentration (M.I.C.)): 125 mg/L (≈ 452 µM); MIC (Ps. aeruginosa A-21213; Pseudomonas aeruginosa A21213): > 125 mg/L |
